Where two headings read alike, the source gives them in different places.
Key:
HeLa cells = test: Cellular uptake assay of [^18F]1; assay type: cell-based, human
Procedure: green fluorescence) for 6 h. The active caspase-3 was stained with anti-caspase-3 primary antibody and a Cy3-labeled secondary antibody (red fluorescence). The cell nuclei were stained with DAPI (blue fluorescence). The images of 1-FITC and active caspase-3 were merged in the last column.
HeLa cells were seeded into a 6-well plate and incubated for 24 h at 37 °C. The cells were cultured in the presence of DOX (2 µM) at 37 °C for 0, 2, 4, 6, 12, and 24 h, respectively. The probe [ 18F]1 (1.0 µCi, 0.037 MBq) was added to each well and incubated for additional 4 h at 37 °C. For inhibition assay, the caspase inhibitor Z-VAD-FMK (50 µM) was added to the DOX-treated cells for 48 h before the addition of [ 18F]1. To study the influence of cold compound 1 on cellular uptake of [ 18F]1 in DOX-treated or untreated cells, HeLa cells were incubated with the cold compound 1 (10 µM) and [ 18F]1 for 4 h at 37 °C.The cells were harvested withcentrifugal separationat 4,000 rpm for 5 min after washing twice with PBS. Then Tryp-LE TM Express (1 mL) was added and the cells were kept for 1-2 min to allow detaching. The cell/Tryp-LE solution was counted by a γ counter and the activity was normalized to the protein concentration (determined by comparison with BSA standard in an absorption assay from Pierce) in each vial.
Figure S23. […]

HeLa xenograft tumor = details: for tracer uptake ratio in DOX-treated versus untreated tumors: only [^18F]1
Procedure: BALB/c nude mice (18-20 g, 4-6 weeks old) were used for animal experiments. Mice were housed with free access to food and water, and allowed ample time to acclimatize before the experiments. The tumor models were established by subcutaneous injection of human cervical cancer cells HeLa (1~2×10^6) suspended in PBS (100 µL) in the right shoulder or the posterior limb of the nude mouse. The tumors were allowed to grow for around 3-4 weeks to reach the size of 0.5-1.0 cm in diameter. Then, a subset of mice were treated with intratumoral or intravenous injection of DOX (0.2 mg, in 20 µL). Three days later, the animals were used for PET imaging and then the tumors were removed for the analysis of caspase-3 activity. All procedures were approved by the Animal Care and Ethics Committee of Jiangsu Institute of Nuclear Medicine.
PET scanning was carried out using an Inveon Dedicated microPET scanner (Siemens). In all experiments, the mice were anesthetized with isoflurane (2% isoflurane in oxygen at a flow rate of 2 L/min). One group of HeLa-bearing mice were scanned at baseline (without DOX treatment) as a control. For the experimental groups, microPET imaging was performed for one group of mice three days after a single intratumoral injection of DOX (0.2 mg) and the other group was performed after intravenous injection of DOX (0.2 mg) every 4 days for a total of three administrations. The probe [^18F]1 (~100 μCi, in 100 μL physiological saline) was administrated by intravenous injection via the tail vein. For the co-injection group, the mice were administrated by intravenous injection of the probe [^18F]1 with the precursor 1 (20 µmol/kg) via the tail vein. PET images were acquired in a list mode date for 60 min. The PET data were binned into 12 frames and each frame was reconstructed with the OSEM3D/MAP algorithm using microPET Manager (version 6869, Siemens). The reconstructed pixel size was 0.78 × 0.78 × 0.80 mm on a 128 × 128 × 159 image matrix. All PET images were corrected for decay but not for attenuation. Each image was analyzed using ASIPro software (Siemens). […]

tumor [1] = details: cited from earlier work
Excerpt: Recently, a potential PET imaging agent [^18F]ICMT-11 for monitoring the tumor cell death has been approved for clinical trials, where only a modest increase of 65% uptake can be observed in the treated tumor in comparison with the vehicle control tumor [36].

[2] = tested on: activated caspase-3 (19/17 kDa); test: Western blotting of tumor and muscle lysates; assay type: in vivo, BALB/c nude mice; details: DOX intratumoral; normalized to β-actin; n = 3
Procedure: At the end of microPET imaging, DOX-treated or untreated mice were killed. Tumor and muscle tissues (~100 mg) were homogenized by an electronic homogenate machine in RIPA lysis buffer (1 mL) containing protease and phosphatase inhibitors (Halt Protease Inhibitor Cocktail, Thermo Fisher Scientific Inc.). Soluble lysates were harvested by centrifugation at 12,000 rpm for 10 min at 4 °C. Protein content was measured using BCA protein assay kit and 40 μg of protein was separated with a 12% SDS-PAGE gel. After blotting to PVDF membrane, the membranes were blocked with 5% skimmed milk in tris-buffered saline (TBS, pH 7.4) for 60 min at room temperature and incubated overnight at 4 °C in buffer (TBS with 0.1% Tween-20 and 5% skimmed milk) containing different antibodies. Detection of primary antibody was performed with HRP-conjugated secondary antibody. Immunoreactive bands were visualized with Western blotting luminol reagent. Densitometric analysis was performed using Image J software.

[3] = tested on: active caspase-3 (19/17 kDa); test: Western blotting of DOX-treated HeLa cells, active caspase-3; assay type: cell-based, human; details: 24 h
Procedure: (§1) Western blotting analysis of caspase-3 activity in DOX-treated HeLa cells HeLa cells were seeded into 6-well plates at the density of 5 ×10^5 cells/well, followed by treatment with various concentrations of DOX for 24 h. Cells were washed with ice-cold PBS and then lysed at 4 °C for 5 min with RIPA lysis buffer containing protease and phosphatase inhibitors (Halt Protease Inhibitor Cocktail, Thermo Fisher Scientific Inc.). Soluble lysates were harvested by centrifugation at 12,000 rpm for 10 min at 4 °C. The content of protein was […]
(§2) (1 picture or pasted object on this page, not shown here) […]
(§3) measured using BCA protein assay kit and 40 μg of protein was separated with a 12% […]
(§4) SDS-PAGE gel. After blotting to PVDF membrane, the membranes were blocked with 5% […]
(§5) skimmed milk in tris-buffered saline (TBS, pH 7.4) for 60 min at room temperature and […]
(§6) incubated overnight at 4 °C in buffer (TBS with 0.1% Tween-20 and 5% skimmed milk) […]
(§7) containing different antibodies. Detection of primary antibodies was performed with […]
(§8) HRP-conjugated secondary antibody. Immunoreactive bands were visualized with Western […]
(§9) blotting luminol reagent. Densitometric analysis was performed using Image J software. […]
(§10) The DOX-treated group was cultured in the presence of DOX (2 µM) […]
(§11) for 6 h at 37 °C, then the medium was changed and the cells were cultured for another 24 h at […]
(§12) 37 °C. After incubated with 1-FITC (2 µM) for 6 h at 37 °C, the cells were washed with PBS, […]
(§13) fixed with 3.7% formaldehyde in PBS and permeabilized with 0.1% Triton X-100 in PBS for […]
(§14) 30 min at room temperature. Cells were blocked with 5% BSA in PBS for 30 min, and then […]
(§15) washed with PBS. Afterwards, cells were incubated with anti-caspase-3 antibody (caspase-3 […]
(§16) rabbit monoclonal antibody, Beyotime) overnight at 4 °C, washed with PBS, and incubated […]
(§17) with Cy3-labeled goat anti-rabbit IgG (Beyotime) for 1 h. Cells were washed with PBS […]
(§18) andstained with DAPI (5 µg/mL) for 2 min, and thenwashed twice with PBS. Finally, the cells […]
(§19) were viewed with the Olympus Xcellence. […]

[4] = tested on: intact caspase-3 (35 kDa); test: Western blotting of DOX-treated HeLa cells, intact caspase-3; assay type: cell-based, human; details: 24 h
Procedure: as §1, §2, §3, §4, §5, §6, §7, §8, §9, §10, §11, §12, §13, §14, §15, §16, §17, §18, §19

tumor [5] = tested on: tumor; design: method as in PMID 25972517; details: cited from earlier work

Molecule: [^18F]DEVD-Cys(StBu)-PPG(CBT)-AmBF3 [[^18F]1]
- uptake with versus without addition of cold compound 1 (HeLa cells; DOX-untreated HeLa, cold 1 10 µM, 4 h, 37 °C): almost identical
- retained [^18F] activity in DOX-treated cells with caspase inhibitor, versus untreated tumor cells (HeLa cells; HeLa, DOX 24 h, Z-VAD-FMK 50 µM for 48 h before [^18F]1): almost identical
- tumor-to-muscle uptake ratio in treated apoptotic tumor model relative to untreated group (HeLa xenograft tumor; 20 min post injection): more than two folds
- tracer uptake ratio in DOX-treated versus untreated tumors (HeLa xenograft tumor; DOX intratumoral, 15-20 min post injection): 4.23
- tracer uptake ratio in DOX-treated versus untreated tumors (HeLa xenograft tumor; DOX intravenous): 3.01

Molecule: O=C1C(=O)N(Cc2cn(CC[18F])nn2)c2ccc(S(=O)(=O)N3CCCC3COc3ccc(F)cc3F)cc21 (stereo not shown) [[^18F]ICMT-11]
- increase of uptake in treated tumor versus vehicle control tumor (tumor [1]): 65%

Molecule: COc1cccc2c1C(=O)c1c(O)c3c(c(O)c1C2=O)C[C@@](O)(C(=O)CO)C[C@@H]3O[C@H]1C[C@H](N)[C@H](O)[C@H](C)O1 [DOX, doxorubicin]
- expression level of activated caspase-3 in DOX-treated tumor versus muscle [2]: 7.5 folds
- expression level of activated caspase-3 in DOX-treated tumor versus untreated tumor [2]: 4.5 folds
- increase of active caspase-3 expression versus DOX-untreated cells ([3]; 0.5 µM DOX): 3.3 folds
- increase of active caspase-3 expression versus DOX-untreated cells ([3]; 1 µM DOX): 9.3 folds
- increase of active caspase-3 expression versus DOX-untreated cells ([3]; 2 µM DOX): 13.4 folds
- increase of active caspase-3 expression versus DOX-untreated cells ([3]; 4 µM DOX): 15.5 folds
- decrease of intact caspase-3 expression versus DOX-untreated cells ([4]; 0.5 µM DOX): 1.3 folds
- decrease of intact caspase-3 expression versus DOX-untreated cells ([4]; 1 µM DOX): 1.5 folds
- decrease of intact caspase-3 expression versus DOX-untreated cells ([4]; 2 µM DOX): 2.1 folds
- decrease of intact caspase-3 expression versus DOX-untreated cells ([4]; 4 µM DOX): 2.2 folds

Molecule: OC[C@H]1OC(O)[C@H]([18F])[C@@H](O)[C@@H]1O (stereo partly shown) [^18F-FDG]
- response to cell death (tumor [5]): no differentiated response

Molecule: CC(CCCCC[18F])(C(=O)O)C(=O)O [^18F-ML-10]
- differential response to treatment (tumor [5]): little differential response
- response to cell death (tumor [5]): no differentiated response

From PMC6815954, “Rational design of caspase-responsive smart molecular probe for positron emission tomography imaging of drug-induced apoptosis” (Theranostics, 2019)
